In patent US20150005306A1 (priority 2013, published 2015):
Entries after “also recorded” stand apart in the source; their conditions may differ.

Tests used:
[1] = test system: Alzheimer's disease transgenic mouse; assay: Fear conditioning-contextual test; type: in vivo; details: 1 mg/kg of each drug, after the 13 weeks of Example 1
From the text: (§1) To observe the effects of the combination of EPPS and donepezil, the experimental animal subjected to the Y-maze behavior test for 13 weeks in Example 1 was subjected to a fear conditioning test for testing fearful memory of space and sound.
(§2) The fear conditioning test was divided into a fear conditioning-contextual test that tests fearful memory of space and fear conditioning-cued test that tests fearful memory of sound.
(§3) The test included a pair of sound stimulation (CS(conditioned stimulus), 30 seconds, 85 dB, and 30 kHz) and electric shock (US(unconditioned stimulus), 1 second, and 0.5 mA), which was repeated twice. Each was performed with a term of 90 seconds and the mouse was taken out from the conditioning box 90 seconds after the last electric shock (US). The following tests were performed after 24 hours.
Contextual test: the experimental animal was maintained in the conditioning box and freeze response were measured without providing sound stimulation and electric shock, results of which were used as a scale of conditioned fearful reaction. The freeze reaction was defined as a motionless state, except for breathing.

[2] = test system: Alzheimer's disease transgenic mouse; assay: Y-maze behavior test (spontaneous alternation); type: in vivo; details: B6C3-Tg(APPswe, PSEN1dE9) mouse, 1 mg/kg of each drug orally every day, Y-maze once every week for 13 weeks
Method: To test the effects of a combination of EPPS and donepezil, a Y-maze behavior test for evaluating learning memory of an Alzheimer's disease transgenic mouse was performed.
10 months old B6C3-Tg(APPswe, PSEN1dE9)85Dbo/Mmjax (The Jackson Laboratory, the U.S.A.) was used as the Alzheimer's disease transgenic mouse, as an experimental animal. The experimental animal was divided into three groups, namely, a donepezil administered group, an EPPS administered group, and a combination of donepezil and EPPS administered group were orally administered with respective drugs everyday in the amounts shown in Table 1 below and the Y-maze test was performed once every week for 13 weeks. As a control group, a transgenic mouse that was not administered with a drug was used as a negative control group and a normal mouse that was not administered with a drug was used as a positive control group.
The Y-maze instrument includes a maze made of a black acrylic board [branches: width 6 cm, length 40 cm, and height 12 cm] having a Y-shape in which all corners were blocked and each branch was disposed at a uniform angle of 120°. […] Frequencies and sequences of the experimental animal moving into each branch were measured to evaluate spontaneous alternation (%). […]

[3] = test system: Alzheimer's disease transgenic mouse; assay: Fear conditioning-cued test; type: in vivo; details: 1 mg/kg of each drug, after the 13 weeks of Example 1
From the text: as §1, §2, §3
Cued test: To change the context after 24 hours of the contextual test, the mouse was put into a box other than the box used for the contextual test and was provided with a sound stimulation identical to the contextual test (electric shock was not provided) to measure freeze reactions. The results were used as a scale for fear response conditioned to the cues.

[4] = test system: β-amyloid fibrils or oligomers; details: as disclosed in a research paper; cited from earlier work

O=S(=O)(O)CCCN1CCN(CCO)CC1 [EPPS, N-(2-hydroxyethyl)piperazine-N′(3-propanesulfonic acid)]
Average freeze response, contextual test [1]: 34.437
improvement in cognitive skills (normalized % alternation rate, FIG. 1) [2]: gradual improvement in the cognitive skills compared with that of the donepezil administered group; also recorded: reached the same level of cognitive skills as the donepezil administered group at 10 weeks; also recorded: long-term improvement in cognitive skills but a slower improvement compared with donepezil and a lower improvement compared with the combination of EPPS and donepezil
Average freeze response, cued test [3]: 55.1042
effect on accumulation of β-amyloid fibrils or oligomers [4]: inhibits the accumulation of β-amyloid fibrils or oligomers and decomposes the accumulated β-amyloid fibrils or oligomers

COc1cc2c(cc1OC)C(=O)C(CC1CCN(Cc3ccccc3)CC1)C2 (stereo not shown) [donepezil, reference compound]
Average freeze response, contextual test [1]: 16.602
improvement in cognitive skills (normalized % alternation rate, FIG. 1) [2]: initially showed a rapid improvement in cognitive skills, but the improvement reached peak at 5 weeks and decreased at 7 weeks; also recorded: rapid but short-term improvement in cognitive skills
Average freeze response, cued test [3]: 58.9167
